Test results published in ChEMBL document CHEMBL3137356, “MMV Box Cryptosporidium parvum screening set”.

These molecules were tested on Cryptosporidium parvum (assay: MMV: Cryptosporidium parvum oocysts (Iowa Strain) were prepared for use by treatment with 10 mM HCl (37 degrees C, 10 min) followed by 2 mM sodium taurocholate in phosphate-buffered saline (PBS) with Ca2+ and Mg2+ (16 degrees C, 10 min) in order to stimulate excystation. The high-throughput screen was carried out by inoculating >90% confluent human ileocecal adenocarcinoma (HCT-8) cells (ATCC) with ~5.5 x 10^3 primed oocysts per well. Experimental compounds or DMSO (vehicle) were added three hours after infection, and cells were incubated for 48 hours.).
Assay type: functional
`O=C(Nc1ccc(Cl)c(Cl)c1)Nc1ccc(Cl)c(Cl)c1` gave an Inhibition of 79.74%. `COc1ccc(-c2cc3c(nn2)-c2ccccc2C3=O)cc1` gave an Inhibition of -19.28%. `COc1ccc(C2c3ccc4ccccc4c3Oc3ncn(CCCN(C)C)c(=N)c32)cc1` (configuration not stated) was tested, and the Inhibition was 9.024%. Molecule `N=c1n(CCN2CCCCC2)c2ccccc2n1CC(=O)c1ccc(Cl)c(Cl)c1` has an Inhibition of -71.18%. `Nc1nc(Nc2cccc(F)c2)nc2ccccc12` gave an Inhibition of 22.76%. In the case of `COc1ccc(/C=C2/SC(=Nc3ccccc3)NC2=O)cc1`, the Inhibition is reported as 35.48%. In the case of `c1ccc(/C2=N/c3ccccc3/N=C(/c3ccccc3)c3ccccc32)cc1`, the Inhibition is reported as 8.997%. With `COc1ccc(-c2nc(N3CCN(C(=O)C4CCCCC4)CC3)c3c4c(sc3n2)CCCC4)cc1` the Inhibition was -3.496%. Molecule `O=C(NC1CCN(Cc2ccccc2)CC1)c1cc2nc(-c3ccc(Cl)s3)cc(C(F)(F)F)n2n1` has an Inhibition of -21.67%. For `Cc1sc(NC(=O)c2ccccc2)c(C(c2cccs2)N2CCN(c3ccccc3)CC2)c1C` (configuration not stated), the Inhibition was -51.35%. With `Cc1sc(NC(=O)c2ccco2)c(C(c2cccnc2)N2CCC(Cc3ccccc3)CC2)c1C` (configuration not stated) the Inhibition was -7.724%. `CCOC(=O)c1c(C)n(-c2ccccc2)c2ccc(OC(=O)c3cc(OC)c(OC)c(OC)c3)cc12` gave an Inhibition of 4.591%. `COc1cc(C(=O)Nc2nc3c(cc4c5c(cccc53)CC4)s2)cc(OC)c1OC` gave an Inhibition of -26.05%. With `COc1ccc(CCN2C(=O)c3[nH]nc(-c4cc(Cl)c(C)cc4O)c3C2c2ccccc2F)cc1` (configuration not stated) the Inhibition was 10.68%. With `N#Cc1nc(Cc2cccc3ccccc23)oc1N1CCN(C(c2ccccc2)c2ccccc2)CC1` the Inhibition was -4.219%. With `COc1ccc(C2c3ccc4ccccc4c3Oc3ncn(CCCn4ccnc4)c(=N)c32)cc1OC` (configuration not stated) the Inhibition was 5.542%. `CN(N=O)C1=C(NC2CCCCC2)C(=O)c2ccccc2C1=O` gave an Inhibition of -6.459%. In the case of `COc1cc(C(=O)Nc2ccc(-c3nc4ccccc4[nH]3)cc2)cc(OC)c1OC`, the Inhibition is reported as 41.18%. `CCOc1ccc(N2C(N)=NC(N)=NC2(C)C)cc1.Cl` gave an Inhibition of -26.74%. With `COc1cccc(Nc2nc(N)c3ccccc3n2)c1.Cl` the Inhibition was 27.99%. Work on `Cc1ccc(C(=O)c2oc3ccc4c(C)cc(=O)oc4c3c2C)cc1` yielded an Inhibition of 28.07%. In the case of `COc1ccc(CN2CCCC(C(=O)c3ccc(C(F)(F)F)cc3)C2)c(O)c1` (configuration not stated), the Inhibition is reported as -4.732%. `CCCCCCc1cc2cc(-c3csc(C=Cc4ccccc4)n3)c(=O)oc2cc1O` showed an Inhibition of 10.86%. `O=C(CCl)NCCOc1ccc(Cl)cc1Cl` was tested, and the Inhibition was 7.535%. For `Oc1ccc(-c2nc(-c3ccc4oc5ccc(-c6[nH]c(-c7ccc(O)cc7)nc6-c6ccccc6)cc5c4c3)c(-c3ccccc3)[nH]2)cc1`, the Inhibition was -17.83%. For `O=C(NC1CCCCC1)C(c1cccs1)N(CCc1ccccc1)C(=O)c1ccco1` (configuration not stated), the Inhibition was -24.45%. `CC(Oc1ccc(NC(=O)c2cccs2)cc1)C(=O)c1ccc(Cl)cc1` (configuration not stated) was tested, and the Inhibition was 19.15%. `CCOc1ccc(CN2CCN(CC(O)COc3ccc(OCC(O)CN4CCN(Cc5ccc(OCC)cc5)CC4)cc3)CC2)cc1` (configuration not stated) gave an Inhibition of 1.883%. In the case of `CCCCNc1nc(NC(C)(C)C)nc(NC(C)(C)C)n1`, the Inhibition is reported as 20.51%. Work on `Cl.c1ccc2c(NCCCCCCNc3c4c(nc5ccccc35)CCCC4)c3c(nc2c1)CCCC3` yielded an Inhibition of 13.18%. Molecule `COc1ccc(CNC(=O)c2cc3c(=O)n4ccccc4nc3n(CCc3ccccc3)c2=N)cc1` has an Inhibition of 20.87%. For `Brc1ccc(Nc2nc3ccccc3nc2Nc2ccc(Br)cc2)cc1`, the Inhibition was -31.05%. With `O=C(NC1CCN(Cc2ccccc2)CC1)c1cc(C(=O)NC2CCN(Cc3ccccc3)CC2)cc(C(=O)NC2CCN(Cc3ccccc3)CC2)c1` the Inhibition was 0.9409%. In the case of `COc1ccc(CCn2c(=N)c(C(=O)NCc3cccnc3)cc3c(=O)n4cccc(C)c4nc32)cc1`, the Inhibition is reported as 0.9407%. Molecule `Nc1ccc(-c2nc3cc(Cc4ccc5[nH]c(-c6ccc(N)cc6)nc5c4)ccc3[nH]2)cc1` has an Inhibition of -51.86%. In the case of `COc1ccc(-c2cn3c(C(=O)Nc4ccccc4Cl)c(-c4ccccc4)c4c3n2CCCC4)cc1`, the Inhibition is reported as 34.31%. `CCCCOC(=O)c1ccc(Nc2cc(C)nc3ccc(OC)cc23)cc1` was tested, and the Inhibition was 12.32%. `Cl.Cn1c(=O)n(C)c2cc(CNCCNc3ccnc4cc(Cl)ccc34)ccc21` gave an Inhibition of 20.67%. `Cc1cc(Nc2ccc(OCc3ccccc3)cc2)nc2cc(O)ccc12` was tested, and the Inhibition was -18.86%. In the case of `CCN(CC)CCNc1ccnc2cc3ccccc3cc12.O=P(O)(O)O`, the Inhibition is reported as 3.908%. In the case of `CCOc1ccc2nc(C)cc(Nc3ccc(N(C)C)cc3)c2c1.Cl`, the Inhibition is reported as -13.24%. `COc1ccc(Nc2cc(C)nc(NCc3ccccc3)n2)cc1` showed an Inhibition of -1.126%. In the case of `N=c1c2ccccc2nnn1-c1cccc(C(F)(F)F)c1`, the Inhibition is reported as 6.889%. `COc1cc(-c2nc(-c3ccc(Sc4ccccc4)cc3)c(-c3ccccc3)[nH]2)cc(OC)c1O` gave an Inhibition of -39.67%. Molecule `COc1ccc(C=C2SC(Nc3ccc(F)cc3)=NC2=O)c(OC)c1` has an Inhibition of 36.03%. `Oc1ccc2ccccc2c1CNc1nc2ccccc2[nH]1` gave an Inhibition of -48.76%. In the case of `COc1ccc(C2NCCc3c2[nH]c2ccccc32)cc1CN1CCN(c2ccc(F)cc2)CC1.Cl` (configuration not stated), the Inhibition is reported as -2.167%. With `O=C1c2ccc3c4c(ccc(c24)C(=O)N1CCCCO)C(=O)N(CCCCO)C3=O` the Inhibition was 79.86%. `O=C(Nc1ccc(-c2nc3cc(NC(=O)c4ccc(Cl)cc4)ccc3[nH]2)cc1)c1ccc(Cl)cc1` showed an Inhibition of -6.932%. `OC(Cn1nnc2ccccc21)Cn1c2ccc(Br)cc2c2cc(Br)ccc21` (configuration not stated) showed an Inhibition of -11.24%. For `CCOc1ccc(-n2cc(-c3ccccc3)c3c(SCc4cc(C)ccc4C)ncnc32)cc1`, the Inhibition was -2.262%. `Cc1ccc(C)c(Cn2c(N3CCC(C(=O)NCc4cccs4)CC3)nc3ccccc32)c1` showed an Inhibition of -14.3%. In the case of `Cc1ccccc1OCCSc1nc2ccc(NC(=O)c3cccs3)cc2s1`, the Inhibition is reported as -27.25%. `CCOC(=O)c1cnc2ccc(OC)cc2c1Nc1ccc(N2CCN(C)CC2)cc1` gave an Inhibition of -40.43%. With `COc1ccccc1C(=O)ON=C(N)Cc1cccc2ccccc12` the Inhibition was -19.53%. In the case of `COc1ccc(C(=O)C(CCC(CNC(C)(C)C)C(=O)c2ccc(OC)cc2)CNC(C)(C)C)cc1` (configuration not stated), the Inhibition is reported as -20.25%. Work on `CCOc1cc2c(cc1OCC)C(c1cc(Cl)ccc1O)NCC2` (configuration not stated) yielded an Inhibition of -2.297%. In the case of `COc1ccc(C2C(C(=O)Nc3cccc(OC)c3)c3ccccc3C(=O)N2C2CCCCC2)cc1` (configuration not stated), the Inhibition is reported as -43.91%. `c1ccc2c(NCCc3c[nH]c4ccccc34)c3ccccc3nc2c1` was tested, and the Inhibition was 19.05%. Molecule `COc1cc(C(=O)ON=C(N)Cc2cccc3ccccc23)cc(OC)c1OC` has an Inhibition of 26.07%. In the case of `CCN(CC)CCCNc1ccnc2cc3ccccc3cc12`, the Inhibition is reported as -47.31%. `CN1C=C(c2ccc3ccccc3n2)C(c2c[nH]c3ccccc23)c2ccccc21` (configuration not stated) gave an Inhibition of -24.69%. Molecule `Oc1c(C(Nc2ccccn2)c2cccc(Oc3ccccc3)c2)ccc2cccnc12` (configuration not stated) has an Inhibition of 73.93%. For `COc1cc(-c2nc(-c3ccccc3)c(-c3ccccc3)[nH]2)cc(OC)c1O`, the Inhibition was -1.324%. `O=C(Nc1ccc(-c2nc3cc4ccccc4cc3[nH]2)cc1)c1cccc(Br)c1` gave an Inhibition of -10.01%. With `Cc1ccc(-c2nc3ccccc3o2)cc1NCc1cc(Cc2ccccc2)ccc1O` the Inhibition was 20.55%. Molecule `OC(CNC1CCCCC1)Cn1c2ccc(I)cc2c2cc(I)ccc21` (configuration not stated) has an Inhibition of 25.2%. In the case of `COc1ccc(C(O)(CCC(C)C)C(CN2CCOCC2)c2ccc(Cl)cc2)cc1.Cl` (configuration not stated), the Inhibition is reported as -51.44%. Work on `Br.CCn1c2c(c(=N)c3c1CCC3)CCCC2` yielded an Inhibition of 9.729%. `CCCOCc1cc(CN2CCN(c3cccc(Cl)c3)CC2)c(O)c2ncccc12` gave an Inhibition of 58.2%. Molecule `O=C(Cc1ccccc1)NC(c1ccc(Cl)cc1)c1c(O)ccc2ccccc12` (configuration not stated) has an Inhibition of -13.28%. In the case of `COc1cc(CNCCc2ccc(Cl)cc2)cc(OC)c1O`, the Inhibition is reported as 5.38%. For `Cc1ccc2c(C)nc(Nc3nc(C)cc(-c4ccccc4)n3)nc2c1`, the Inhibition was -62.95%. `c1ccc(CNc2nc(Nc3ccccc3)nc3ccccc23)cc1` gave an Inhibition of 87.13%. `CCOc1ccc(Nc2ccnc3cc(Cl)ccc23)cc1` was tested, and the Inhibition was -43.83%. With `COc1ccc(C(=O)NC(c2ccccc2Cl)c2cc(Cl)c3cccnc3c2O)cc1` (configuration not stated) the Inhibition was 32.62%. For `Cc1cccc(N2C(=O)C3C(C2=O)C2(c4ccccc4)C(=O)C3(c3ccccc3)C(c3ccc4c(c3)OCO4)=C2c2ccc3c(c2)OCO3)c1` (configuration not stated), the Inhibition was 1.02%. Molecule `Oc1ccc(Br)cc1CN1CCN(Cc2ccc(Cl)cc2)CC1` has an Inhibition of -16.25%. `CCCc1c(C)nc2ccc(Br)cc2c1O` was tested, and the Inhibition was -49.14%. `Cc1ccc(F)cc1NC(=O)c1cc(Cl)ccc1Nc1ccccc1` was tested, and the Inhibition was -36.44%. In the case of `CCOc1ccc2nc(C)cc(Nc3ccc(Br)cc3)c2c1`, the Inhibition is reported as -4.208%. For `COc1cc2c3cc1Oc1c(OC)c(OC)cc4c1C(Cc1ccc(O)c(c1)Oc1ccc(cc1)CC3N(C)CC2)N(C)CC4.Cl` (configuration not stated), the Inhibition was -14.29%. With `CCCCCCc1cc2cc(-c3nc4ccccc4[nH]3)c(=Nc3ccccc3C)oc2cc1O` the Inhibition was -3.461%. With `CCCCCCC(O)(c1ccc(F)cc1)C(CN1CCOCC1)c1ccccc1.Cl` (configuration not stated) the Inhibition was 35.55%. Work on `Br.Cc1ccc(C)c(-c2csc(Nc3ccc(C)c(C)c3)n2)c1` yielded an Inhibition of -25.23%. `COc1cc(OC)cc(N2C(=O)N(Cc3ccc(C(C)(C)C)cc3)c3ccccc3S2(=O)=O)c1` showed an Inhibition of -14.44%. `CCOc1c(Br)cc(C2C(C(=O)OC)=CN(C)C=C2C(=O)OC)cc1OC` was tested, and the Inhibition was -4.752%. `COc1ccc2sc(N(Cc3cccnc3)C(=O)c3ccc(C#N)cc3)nc2c1` showed an Inhibition of 39.49%. Molecule `CC1CC2=C(CC1CNCCCN(C)C)C(C)(C)CCC2` (configuration not stated) has an Inhibition of 42.26%. Molecule `CN(C)c1ccc(N=Cc2ccc(N3CCOCC3)cc2)cc1` has an Inhibition of -8.003%. In the case of `COc1ccccc1N1C(=N)SC(=Cc2ccc(OCc3ccccc3F)cc2)C1=O`, the Inhibition is reported as -8.054%. With `CCOC(=O)c1cnc2ccc(OC)cc2c1NCc1ccccc1` the Inhibition was 13.76%. `CCOC(=O)C1=CN(C)C=C(C(=O)OCC)C1c1cc(Br)c(OCC)c(OC)c1` was tested, and the Inhibition was -2.299%. Work on `CC(C)(C)c1ccc(C2CC3=Nc4ccccc4N(C(=O)c4ccccc4Cl)C(c4ccc(F)cc4)C3=C(O)C2)cc1` (configuration not stated) yielded an Inhibition of 20.41%. With `CN1CCN(c2nc(Nc3ccc(O)cc3)nc3ccccc23)CC1.Cl` the Inhibition was -22.12%. Molecule `CCOC(=O)c1c[nH]c2c(CC)cccc2c1=O` has an Inhibition of 0.8782%. For `CCCCc1c(CCC)c(=N)c2ccccc2n1C.I`, the Inhibition was 11.94%.
